{
  "source": "patent US20220054588A1",
  "about": "“USE OF SAP FOR THE TREATMENT OF EUROTIOMYCETES FUNGI INFECTIONS” (HUMANITAS MIRASOLE S.P.A., priority 2018, published 2022)",
  "key": {"[1]": {"system": "membrane attack complex (MAC; C5b-C9) on A. fumigatus conidia", "test": "FACS analysis of MAC (C5b-C9) deposition on A. fumigatus conidia in human sera", "type": "biochemical", "experimental": "FIG. 12 depicts the therapeutic efficacy of SAP in treatment of invasive aspergillosis. a) b) c) survival of transiently immunosuppressed wt mice after injection with the indicated doses of AF conidia. The curve of untreated mice (n=3) with cyclophosphamide is also shown (a). Human SAP (4 mg/Kg) was injected at 2 h and 24 h after infection. a) AF 5.10^7, n=17; AF 5.10^7+SAP, n=15; b) AF 1.10^7, n=7; AF 1.10^7+SAP, n=8; c) AF 5.10^6, n=8; AF 5.10^6+SAP, n=10.***, P<0.005 SAP-treated vs. saline (Mantel-Cox test). One-way ANOVA, P<0.0001. d) lung CFU in mice treated with cyclophosphamide and infected with 1.10^7 AF conidia.*, P<0.05 (Mann-Whitney test). e) quantitative analysis of AF viability performed using a resazurin-based assay. Plasma (30%) from wt and Apcs^−/− mice were incubated (1 min) with 1.5×10^5 AF conidia pre-opsonized or not with SAP. Results are mean±SD of red fluorescence (excitation/emission 535/580-610 nm) intensity of the resazurin once reduced to resorufin within viable cells. Effect of Posaconazole (POC; 1 μM) exposure is also shown. Results are mean±SEM relative to the condition without serum (grey symbols) of two experiments performed with n=10 mice/group. […] AF viability assay performed in sera depleted from complement components. Figure summarizes one experiment out of 5 also conducted with serum 10%. Mean±SD.*, P<0.05; **, P<0.01 (unpaired t-test). g) and h) FACS analysis of MAC deposition on AF conidia (1×10^7) in presence of sera depleted from complement components (e) and the effect of SAP (f). Mean±SEM of 2 experiments performed out of 4. e, f,*, P<0.05;**, P<0.01;***, P<0.005;****, P<0.001; (Mann-Whitney test).\nComplement deposition on Aspergillus fumigatus. A volume of 10 μl PBS, pH 7.4, containing 1×10^7 conidia eventually opsonized with murine SAP (100 μg/ml per 1×10^9 conidia, 1 h at r.t.) was incubated (37° C.) in round bottom wells of Corning® 96-well polypropylene microplates for the indicated time points with 20 μl mouse plasma-heparin or 20 μl human NS and complement depleted sera (diluted in PBS at 10% and 30%). Complement deposition was blocked by addition of EDTA (10 mM final concentration) and by cooling in ice. After centrifugation (2000 rpm, 10 min at 4° C.), when indicated supernatant was collected for C5a measurement by ELISA. […] Conidia were then incubated (1 h, at 4° C.) with Alexa Fluor® 488 and 647-conjugated species-specific cross-adsorbed detection antibodies (2 μg/ml; ThermoFisher Scientific-Molecular Probes) and analysed by BD FACS Canto™ II Flow Cytometer (BD Biosciences) using forward and side scatter parameters to gate on at least 8,000 conidia. […] Results were expressed as frequency of conidia showing fluorescence compared with irrelevant controls and as geometric conidia MFI."}, "human neutrophils": {"system": "human neutrophils", "test": "Phagocytosis of A. fumigatus conidia by isolated human neutrophils in normal or complement-depleted human sera", "type": "cell-based", "experimental": "FIG. 8 depicts the initiation of classical complement activation at the bases of SAP-mediated phagocytosis. a) fluorescein-labelled AF conidia (1.6×10^6) phagocytosis by freshly isolated human neutrophils (2×10^5) in presence of sera depleted (−) from complement components and the effect of SAP opsonisation after 1 and 30 min AF conidia (2×10^8) opsonisation with 100 μg of human native SAP. 5% (left) or 10% (right) of human sera were used. Mean±SEM;*, P<0.05;**, P<0.01;***, P<0.005;***, P<0.0001 (Mann-Whitney test). b) FACS analysis of C1q deposition on AF conidia (1×10^7) in presence of plasma from wt or Apcs^−/− mice. Mean±SEM;*, P=0.05.\nHuman neutrophils were isolated from fresh whole blood of healthy volunteers through separation from erythrocytes by 3% dextran (GE Healthcare Life Sciences) density gradient sedimentation followed by Ficoll-Paque PLUS (GE Healthcare Life Sciences) and 62% Percoll® (Sigma-Aldrich) centrifugation as previously described (Moalli et al., 2010). Purity, determined by FACS analysis on forward scatter/side scatter parameters, was routinely >98%. 1×10^5 neutrophils were incubated for 1 and 30 min at 37° C. in 50 μl RPMI-1640 medium with 5 and 10% normal human serum (NS) or complement depleted sera and 1×10^5 FITC-labelled A. fumigatus conidia. Cells were transferred on ice and, after washing with PBS, pH 7.4, containing 10 mM EDTA and 0.2% bovine serum albumin (BSA; Sigma-Aldrich), FITC fluorescence in neutrophils (CD45-positive cells, neutrophils defined as FSC-A^high/SSC-A^high) was analysed by BD FACS Canto™ II Flow Cytometer (BD Biosciences). NS and sera depleted for C3, C1q, MBL, FB and FH were all obtained from CompTech (Complement Technology, Inc., USA)."}},
  "data": [
    {"substance": "human native SAP: Native SAP from human serum purchased by Merck-Millipore; Serum Amyloid P component, SEQ ID NO: 1", "values": [
      {"measurement": "MAC formation on conidia", "setting": "[1]; FB-depleted serum", "value": "enhanced"},
      {"measurement": "MAC formation on conidia", "setting": "[1]; FH-depleted serum", "value": "enhanced"},
      {"measurement": "MAC formation on conidia", "setting": "[1]; MBL-depleted serum", "value": "enhanced"},
      {"measurement": "MAC formation on conidia", "setting": "[1]; normal serum, 1 min and 30 min", "value": "enhanced"},
      {"measurement": "potentiation of phagocytosis", "setting": "human neutrophils; C1q-depleted serum", "value": "but not"},
      {"measurement": "potentiation of phagocytosis", "setting": "human neutrophils; C3-depleted serum", "value": "but not"},
      {"measurement": "potentiation of phagocytosis", "setting": "human neutrophils; MBL-depleted serum 5%", "value": "55.5±17.0", "unit": "%"},
      {"measurement": "potentiation of phagocytosis", "setting": "human neutrophils; MBL-depleted serum 10%", "value": "19.8±6.1", "unit": "%"},
      {"measurement": "potentiation of phagocytosis", "setting": "human neutrophils; normal human serum 5%", "value": "37.4±10.3", "unit": "%"},
      {"measurement": "potentiation of phagocytosis", "setting": "human neutrophils; normal human serum 10%", "value": "18.3±2.0", "unit": "%"}
    ]}
  ]
}
